This experiment relates to HBsAg secretion, HepG2-Clone42 cells (Tet-inducible HBV-expressing cell line, HBV ayw strain). Nature of the experiment: HBsAg assay (HBsAg ELISA of secreted HBV sAg in HepG2-Clone42 cells). The experiment is classed as cell-based. Particulars: Hepatitis B virus, read-out: HBsAg EC50. Here is the method: HepG2-Clone42, a Tet-inducible HBV-expressing cell line with a stably integrated 1.3mer copy of the HBV ayw strain, was generated based on the Tet-inducible HepAD38 cell line with slight modifications. Ladner S K, et al., Antimicrobial Agents and Chemotherapy. 41(8):1715-1720 (1997). HepG2-Clone42 cells were cultured in DMEM/F-12+ Glutamax™ (Life Technologies, Carlsbad, Calif., USA), supplemented with 10% fetal bovine serum (Life Technologies), G-418 (Corning, Manassas, Va., USA) at a final concentration of 0.5 mg/mL, and 5 μg/mL Doxycycline (Sigma, St. Louis, Mo., USA) and maintained in 5% CO2 at 37° C.
HepG2-Clone42 cells were seeded into black clear-bottom 96-well plates at a concentration of 6.0×10^4 cells/well. 24 hours post-seeding, the cells were treated with 200 μl/well of media containing five-fold serial dilutions of compounds in DMSO. DMSO alone was used as the no drug control. The final DMSO concentration in all wells was 0.5%.
The HBsAg ELISA kit (Alpha Diagnostic International, San Antonio, Tex., USE, Catalog #4110) was used to determine the level (semi-quantitative) of secreted HBV sAg. The HBSAg ELISA assay was performed following the manufacturer's protocol as described.
Step 1. Pipet 100 μL each of compound or DMSO treated samples into HBsAg ELISA plates. Seal plates and incubate at room temp for 60 minutes.
Step 2. Aspirate samples and wash three times with Wash Buffer. Dispense 100 μL of antibody-HRP conjugate to each well. Incubate at room temp for 30 minutes.
Step 3. Aspirate samples and wash three times with Wash Buffer. Add 100 μL of TMB Substrate to all wells and incubate 15 minutes at room temp.
Step 4. Dispense 100 μL of Stop Solution to each well. Measure absorbance of ELISA plate at 450 nm.
Dose-response curves were generated and the EC50 value was defined as the compound concentration at which HBsAg secretion was reduced 50% compared to the DMSO control.
EC50 values were determined as follows:
Determine the percent of HBsAg secretion inhibition. Calculate the percent inhibition on of HBsAg secretion inhibition using the following equation: (XC-MB)/(MDMB) • where XC is the absorbance signal from compound-treated well; MB is average absorbance signal (background signal) for column 12 (no cells+HBsAg ELISA sample buffer) and MD is average absorbance signal from DMSO-treated wells. Then calculate EC50 values by non-linear regression using a four parameter curve logistic equation. The curve fit model employed is XLFit Dose Response One Site Model 204: y=(A+((B−A)/(1+(10^((C−x)*D))))) where A is the minimum y value, B is the maximum y value, C is the log EC50 value, and D is the slope factor. +++means<1 nm; ++means≥1 nm and ≤10 nm and +means>10 nm.

On to `COCCCOc1nn2c(c1Cl)-c1cc(=O)c(C(=O)O)cn1[C@H](C(C)(C)C)C2` [Compound 1.1, (R)-6-(tert-butyl)-1-chloro-2-(3-methoxypropoxy)-10-oxo-6,10-dihydro-5H-pyrazolo[1,5-a]pyrido[2,1-c]pyrazine-9-carboxylic acid], for which the EC50 is less than 1 nM.

For the compound `COCCCOc1cc2n(n1)C[C@@H](C(C)(C)C)n1cc(C(=O)O)c(=O)cc1-2` [Compound 1.2, (R)-6-(tert-butyl)-2-(3-methoxypropoxy)-10-oxo-6,10-dihydro-5H-pyrazolo[1,5-a]pyrido[2,1-c]pyrazine-9-carboxylic acid], the EC50 was more than 10 nM.

Consider `COCCCOc1nn2c(c1Br)-c1cc(=O)c(C(=O)O)cn1[C@H](C(C)(C)C)C2` [Compound 1.3, (R)-1-bromo-6-(tert-butyl)-2-(3-methoxypropoxy)-10-oxo-6,10-dihydro-5H-pyrazolo[1,5-a]pyrido[2,1-c]pyrazine-9-carboxylic acid], for which the concentration for a half-maximal effect (EC50) was 1 to 10 nM.

With `CC(C)c1cc2n(n1)CC(C(C)(C)C)n1cc(C(=O)O)c(=O)cc1-2` (centres unmarked) [Compound 2.1, 6-(tert-butyl)-2-isopropyl-10-oxo-6,10-dihydro-5H-pyrazolo[1,5-a]pyrido[2,1-c]pyrazine-9-carboxylic acid], the EC50 is more than 10 nM.

Turning to `CC(C)(C)[C@@H]1Cn2nc(-c3ccccc3)c(Cl)c2-c2cc(=O)c(C(=O)O)cn21` [Compound 3.1, (R)-6-(tert-butyl)-1-chloro-10-oxo-2-phenyl-5,6-dihydro-10H-pyrazolo[1,5-a]pyrido[2,1-c]pyrazine-9-carboxylic acid], the EC50 was less than 1 nM.

On to `COc1ccccc1-c1nn2c(c1Cl)-c1cc(=O)c(C(=O)O)cn1[C@H](C(C)(C)C)C2` [Compound 3.2, (R)-6-(tert-butyl)-1-chloro-2-(2-methoxyphenyl)-10-oxo-5,6-dihydro-10H-pyrazolo[1,5-a]pyrido[2,1-c]pyrazine-9-carboxylic acid], for which the concentration for a half-maximal effect (EC50) was more than 10 nM.

On to `CC(C)[C@@H]1Cn2nc(-c3ccccc3)cc2-c2cc(=O)c(C(=O)O)cn21` [Compound 3.3, (R)-6-isopropyl-10-oxo-2-phenyl-5,6-dihydro-10H-pyrazolo[1,5-a]pyrido[2,1-c]pyrazine-9-carboxylic acid], for which the half-maximal effective concentration (EC50) was more than 10 nM.

For `CC(C)[C@@H]1Cn2nc(-c3ccccc3)c(Cl)c2-c2cc(=O)c(C(=O)O)cn21` [Compound 3.4, (R)-1-chloro-6-isopropyl-10-oxo-2-phenyl-6,10-dihydro-5H-pyrazolo[1,5-a]pyrido[2,1-c]pyrazine-9-carboxylic acid], the half-maximal effective concentration (EC50) was more than 10 nM.

By EC50 is commonly meant the midpoint of the concentration-response curve.

The record behind these values is US11234977B2, “Fused tricyclic pyrazolo-dihydropyrazinyl-pyridone compounds as antivirals” (priority 2017, dated 2022).
